The term IC90 denotes the point of the concentration-response curve where the effect stands at 90%. Read a low IC90 as greater potency. A word on the IC50: it is the point on the concentration scale where inhibition reaches its midpoint.

≈ marks a conversion by molar mass, not a printed value. Where “and” joins values, the source holds several entries; their conditions need not be identical. Equal values may be shown once.

The test system of experiment [1] is HIV-1 wild type. In words: MT-4 cell-based antiviral assay (viral cytopathicity, tetrazolium). Particulars: Human immunodeficiency virus 1, MT4, wild type virus. Here is the method: Compound E-TMC278 was tested in a cell-based assay, using natural host cells of HIV. MT-4 cells (a cell line of human T cells) were infected with HIV-1 (wild type or mutants) and exposed to different concentrations of antiviral compound in the presence of 10% fetal calf serum. Cytotoxicity was determined in parallel with the antiviral activity so that the selectivity of the antiviral effect could be assessed. Active compounds have to penetrate the cell membrane in order to interfere with replication steps inside the cell.
After four days of incubation at 37° C., the viability of the HIV and mock-infected cells was assessed by an automated tetrazolium-based calorimetric assay. This method enabled the calculation of both the 50% inhibitory concentration for inhibition of viral cytopathicity (IC50), the IC90, and the 50% cytotoxic concentration (CC50). The ratio CC50/IC50, also called the selectivity index, is an indication of the specificity of the antiviral effect. Tested HIV strains included: Wild type (wt) HIV-1; a panel of single and double mutants, obtained by site-directed mutagenesis (SDM), and a panel of clinical isolates, selected for resistance against NNRTIs.
A general note: Protection from cytopathic effect is a common read-out in antiviral testing.

Experiment [2] has as its system monotropic HIV strain Ba-L. As to the kind of experiment: MO-DC/CD4(+) T cell co-culture model of sexual HIV transmission. In kind it is cell-based. Particulars: Human immunodeficiency virus 1, BAL, T-cell, 336 h, read-out: EC50 (concentration suppressing 50% of viral replication). The source says: Immature monocyte derived dendritic cells (immMO-DC) represent a good model for interstitial dendritic cells, which are early targets during sexual HIV transmission and important initiators of the immune response. These immMO-DC were used in “in vitro” models to test the prevention of HIV infection via sexual intercourse or related intimate contact between partners.
For instance, in one model, monocyte-derived dendritic cells (MO-DC) were infected for 2-hours with the monotropic HIV strain Ba-L at a multiplicity of infection (MOI) of 10^−3. After infection, cells were washed 6 times and resuspended in 10% BCS at 400.000 cells/ml. Autologous CD4(+) T cells were purified out of the lymphocyte fraction of the same elutration as the MO-DC and used at a concentration of 2×10^6 cells/ml ((ratio MO-DC/CD4(+) T: 1/5).
A serial dilution of a compound of formula (I) (test compound) was added to the MO-DC/CD4(+) T cell co-cultures. Each experiment was done in 96-well plates, in which each cup contained 50 μl of MO-DC, 50 μl of CD4(+) T cells and 100 μl of test compound. Half of the culture medium, with test compound, was refreshed twice weekly. Supernatants were analysed in ELISA after 14 days of culture. To determine antiviral activity, the test compound concentration able to suppress 50% of the viral replication at the end of the primary cultures (EC50) was measured.

Turning to `Cc1cc(/C=C/C#N)cc(C)c1Nc1ccnc(Nc2ccc(C#N)cc2)n1` [E-TMC278, (E)-4-[[4-[[4-(2-cyanoethenyl)-2,6-dimethylphenyl]-amino]-2-pyrimidinyl]-amino]-benzonitrile], the IC90 in experiment [1] is 1.3 nM and 0.00048 µg/mL. Moreover, in experiment [1] (read-out: IC50), the half-inhibitory concentration (IC50) came out at 0.15 ng/mL (≈ 0.409 nM). The EC50 in experiment [2] was determined as 0.55 nM.

(Values after US8841310B2, “Combinations of a pyrimidine containing NNRTI with RT inhibitors” (Janssen R & D Ireland, priority 2003, dated 2014).)
